Assays:
[1] = at 20° C.; cited from earlier work
[2] = Text: As used herein, the term “solubility” in regard to water solubility includes cases where the sample completely dissolves in deionized water to form a homogeneous mixture, and cases where the sample is completely emulsified. As used herein, “completely” means that no mass of the sample remains in the deionized water.
[3] = Surface tension of blood containing blood modifying agent, pendant drop method (Example 6); conditions: sheep defibrinated blood; amount 0.10 mass %; 35 ° C.; without agent 62.1
Description: The surface tension of blood containing a blood modifying agent was measured by the pendant drop method, using a Drop Master500 contact angle meter by Kyowa Interface Science Co., Ltd. The surface tension was measured after adding a prescribed amount of blood modifying agent to sheep defibrinated blood, and thoroughly shaking. The measurement was accomplished automatically with a device, and the […] γ was determined by the following formula (see FIG. 4). γ=g×ρ×(de)^2×1/H The density ρ was measured at the temperatures listed in Table 5, according to JIS K 2249-1995, “Density test methods and density/mass/volume conversion tables”, “5. Vibrating density test method”. The measurement was accomplished using a DA-505 by Kyoto Electronics Co., Ltd.

Compound | Water solubility [2] | other results
CCCCC(=O)CCCC [5-nonanone] |  | vapor pressure [1]: about 230 Pa
CC(C)CCCCCCCCCCCCCCCOC(=O)CC(O)C(=O)OCCCCCCCCCCCCCCCC(C)C (stereo not shown) [Diisostearyl malate, Diisostearyl Malate] |  | Water solubility (g) [2]: 20< g
CCCCCCCCCCCCOC(=O)CCCCCCCCCCC [ELECTOL WE20, Ester of dodecanoic acid (C12) and dodecyl alcohol (C12)] |  | Surface tension (mN/m) [3]: 58.8 mN/m
CCCCC(CC)C(=O)OCC(C)(C)COC(=O)C(CC)CCCC (stereo not shown) [H-208BRS, Neopentylglycol di-2-ethylhexanoate] | <0.05 g | 
CCCCC(CC)C(=O)OCC(COC(=O)C(CC)CCCC)OC(=O)C(CC)CCCC (stereo not shown) [PANACET 800B] | <0.05 g | 
CCCCCCCC(=O)OCC(COC(=O)CCCCCCC)OC(=O)CCCCCCC [PANACET 800] | <0.05 g | 
CCCCOC(=O)CC(CC(=O)OCCCC)(OC(C)=O)C(=O)OCCCC [Tributyl O-acetylcitrate, Tributyl O-Acetylcitrate] | <0.05 g | 

— patent US10543132B2, “Absorbent article with blood modifying agent” (UNICHARM CORPORATION, priority 2011, dated 2020)
